Measured values from patent US9763994B2, “Composition for promoting wound healing” (INDUSTRY-ACADEMIC COOPERATION FOUNDATION, YONSEI UNIVERSITY, priority 2014, dated 2017).

What was measured:
[1] = system: collagen; assay: Hydroxproline assay of mouse acute wound tissue; type: in vivo, C3H mouse; conditions: wound tissue of Test Example 2; absorbance at 550 nm; FIG. 4B
Description: (B) The tissue used in Test Example 2 was dried in an incubator at 60° C. and then hydrolyzed at 110° C. with 6 N HCl. After adding chloramine T and Ehrlich's reagent to the hydrolyzed tissue, absorbance was measured at 550 nm using the FLUOstar OPTIMA luminometer.

[2] = system: β-catenin, keratin 14, α-SMA, collagen I; assay: Western blotting of mouse wound tissue; type: in vivo, C3H mouse; conditions: wound tissue of Test Example 2; versus control; FIG. 3
Description: The wound tissue used in Test Example 2 was lysed with RIPA buffer and proteins were isolated on 10% SDS polyacrylamide gel and then transferred onto a membrane. The membrane was blocked using 5% nonfat dry skim milk and then incubated with β-catenin (1:1000), α-SMA (1:1000), keratin 14 (1:1000) and collagen I (1:2000) antibodies. After inducing antigen-antibody reactions by adding enzyme-conjugated secondary antibodies that can recognize the antibodies as antigens, the result was observed using a LAS image analyzer.

[3] = system: collagen; assay: Collagen staining of mouse acute wound tissue (Masson's trichrome, picrosirius red, van Gieson); type: in vivo, C3H mouse; conditions: wound tissue of Test Example 2; FIG. 4A
Description: (A) The mouse tissue used in Test Example 2 was fixed in 4% paraformaldehyde, embedded in paraffin and sliced with a thickness of 4 μm. The sliced tissue was deparaffinized, rehydrated and then subjected to van Gieson staining, Masson's trichrome staining and picrosirius red staining in order to evaluate the degree of collagen synthesis. Van Gieson staining was conducted by immersing the slide in Weigert's solution for 10 minutes and then in picro fuchsin solution for 2 minutes. Masson's trichrome staining was conducted by immersing the slide in Weigert's iron hematoxylin solution for 10 minutes and then in Biebrich scarlet/acid fuchsin and aniline blue for 5 minutes, respectively. Picrosirius red staining was conducted by immersing the slide in Weigert's solution for 8 minutes and then in picrosirius red for 1 hour.

[4] = system: acute wound in a mouse model; assay: Mouse acute wound healing model (wound closure, H&E, immunohistochemical staining); type: in vivo, C3H mouse; conditions: for re-epithelialization of the acute wound (H&E staining): C3H mouse wound
Description: (A) In order to confirm the wound healing promoting effect of the peptide synthesized in Example 1, hair was removed the back of a 7-week-old C3H mouse and a 1.5 cm×1.5 cm sized wound was made. For a control group, 10 μL of a vehicle (50% ethanol, 20% propylene glycol, 30% water) was applied once a day for a period of 12 days. For test groups, 10 μL of the peptide or valproic acid (VPA) dissolved in the vehicle at concentrations of 100 μM and 500 mM, respectively, was applied. The skin tissue of the experimental mouse was fixed in 4% paraformaldehyde, embedded in paraffin and sliced with a thickness of 4 μm. The sliced tissue was deparaffinized, rehydrated and then stained with hematoxylin (violet) and eosin (pink) for observation of histological structure. For immunohistochemical staining, the skin tissue slice was deparaffinized, rehydrated and then incubated with 10 mM sodium citrate buffer at 121° C. for 15 minutes to recover antigenicity. The slice was blocked with albumin to prevent nonspecific antigen-antibody reactions and then antigen-antibody reactions were induced by treating with β-catenin (1:100), keratin 14 (1:1000) and collagen I (1:500) antibodies used as wound healing markers. Subsequently, after inducing antigen-antibody reactions by treating the slice with fluorescence-labeled secondary antibodies that can recognize the antibodies as antigens, the result was observed using a fluorescence microscope.
(B) In order to compare the wound healing promoting effect of the synthesized peptide with that of the existing drug, 10 μL of a vehicle (50% ethanol, 20% propylene glycol, 30% water), 100 μM PTD-DBM or 1.5 μM fibronectin was applied on a 1.5 cm×1.5 cm sized wound of a 7-week-old C3H mouse once a day for a period of 12 days.

[5] = system: fibroblasts; assay: Immunocytochemical staining of fibroblasts (peptide infiltration, β-catenin); type: cell-based; conditions: FIG. 1
Description: (§1) For immunocytochemical staining, keratinocytes or fibroblasts were cultured on a 24-well plate and fixed in 4% paraformaldehyde for 15 minutes. After treating with 0.1% Triton X-100 for 15 minutes so that antibodies can permeate well and blocking with albumin so as to prevent nonspecific antigen-antibody reactions, antigen-antibody reactions were induced by treating with β-catenin antibodies. Then, after inducing antigen-antibody reactions by treating with fluorescence-labeled secondary antibodies that can recognize the antibodies as antigens, the result was observed under a fluorescence microscope.

[6] = system: keratinocytes; assay: Immunocytochemical staining of keratinocytes (peptide infiltration, β-catenin); type: cell-based; conditions: FIG. 1
Description: as §1

[7] = 10 μL topical once a day for 12 days, peptide 100 μM, VPA 500 mM

Molecule | collagen in acute wound tissue (hydroxproline assay) [1] | wound healing markers β-catenin, keratin 14, α-SMA or collagen I (western blotting) [2] | collagen in acute wound tissue (Masson's trichrome, picrosirius red and van Gieson staining) [3] | re-epithelialization of the acute wound (H&E staining) [4, 7] | β-catenin [5] | β-catenin [6] | wound healing effect compared with fibronectin ([4]; 100 μM PTD-DBM vs 1.5 μM fibronectin, 10 μL once a day for 12 days, C3H mouse, FIG. 2B) | healing of acute wound ([4]; 1.5 cm×1.5 cm wound, 7-week-old C3H mouse, 10 μL topical once a day for 12 days, peptide 100 μM, VPA 500 mM, FIGS. 2A and 2B)
CCCC(CCC)C(=O)O [VPA, valproic acid, reference compound] | increased collagen | increased as compared to the control | increased collagen | quick re-epithelialization |  |  |  | 
RRRRRRRRGGGGRKTGHQICKFRKCK-(FITC) [PTD-DBM] | increased collagen | increased as compared to the control | increased collagen | quick re-epithelialization | increased β-catenin in a concentration-dependent manner | increased β-catenin in a concentration-dependent manner | excellent when compared with that of fibronectin | could quickly heal the acute wound
